The record followed here is publication PMC3772510 (ChemMedChem, 2011).

A short description of this data set: aqueous solubility. It is filed as physicochemical.

Values after ≈ are worked out from the molar mass of the structure shown.

As to `COc1ccc(C2=N[C@@H](c3ccc(Cl)cc3)[C@@H](c3ccc(Cl)cc3)N2C(=O)N2CCNC(=O)C2)c(OC(C)C)c1` [Nutlin-3a, nutlin-3a], the aqueous solubility (in general, how much of the substance goes into solution per volume) was determined as 0.1 mg/mL (≈ 172 µM).
